Measurements reported in PMC10299677, “Fluorinated Benzofuran and Dihydrobenzofuran as Anti-Inflammatory and Potential Anticancer Agents” (International Journal of Molecular Sciences, 2023).
“Also recorded” adds a separate entry of the source.

Experiments:
COX-2 protein expression = COX-2 protein expression in LPS-treated macrophages (Western blot); format: cell-based, C57BL/6J mice; conditions: 10 µM for compounds 1, 7, 9, 50 µM for others, LPS 24 h
Description: Figure 4 Effects of the fluorinated benzofuran and dihydrobenzofuran on COX-2 and NOS2 protein expressions. COX-2 and NOS2 protein expressions were assessed in macrophages incubated with only 10 µM for compounds 1, 7, and 9, and 50 µM for the other compounds, for 30 min prior to the addition of 10 ng/mL LPS for 24 h. β-actin was used as a loading control, and densitometric analysis was performed using ImageJ software (NIH, MA). Data are expressed as fold of LPS-treated macrophages and represented as mean ± SEM of 4 different experiments; * p < 0.05 versus LPS (one-way ANOVA followed by Dunnett’s test).
(§1) Macrophages were incubated with the compounds for 30 min prior to the addition of 10 ng/mL LPS for 24 h. Protein levels for COX-2 and NOS2 were detected in LPS-stimulated macrophages. As previously described, 10 µg of total protein was assessed. The primary antibodies were developed and characterized as previously described: for COX-2, mouse monoclonal antibody anti-COX-2 (clone COX-214, 1/5000); for NOS2, rabbit polyclonal antibody anti-NOS2 (dilution1/2000 [33]). Antibodies anti-phospho-NF-κB (3033S), phospho-IκBα (9246S), and total IκBα (4814S) were from Cell Signaling Technologies (Danvers, MA, USA). Total NF-κB C-20 (sc-372) was from Santa Cruz Biotechnologies (Dallas, TX, USA), and mouse β-actin (dilution 1/10,000) (Sigma-Aldrich, A5441). Clarity™ western ECL substrate (Bio-Rad Laboratories 10-5061) was used according to the manufacturer’s instructions to reveal positive bands visualized using Bio-Rad ChemiDoc. For Bcl-2 and cleaved PARP-1, HCT116 cells were plated in 6-well plates (200,000 cells per well) for 24 h, and treated with compounds 1 and 2 at 10, 25, and 50 µM for 72 h. Supernatants and cells were collected and lysed using RIPA lysis buffer containing inhibitors of protease. Western blot of Bcl-2 and cleaved PARP-1 was performed using 25 µg of total protein with a rabbit polyclonal antibody anti-Bcl-2 (1/500) (Santa Cruz Biotechnology, sc-492), rabbit polyclonal antibody anti-PARP-1 (1/1000) (Santa Cruz Biotechnology, sc-7150), and mouse anti-β-actin (dilution 1/10,000) (Sigma-Aldrich, A5441).
Densitometric analyses were performed using ImageJ software (NIH, MA, USA). The ratio of the different analyzed bands to β-actin was determined and data are represented as fold change compared to the LPS-treated cells. Percentage of viable cells for proliferation assay was determined as percentage to control (non-treated cells). For TUNEL assay, apoptotic cells were quantified, and results were expressed as percentage to positive cells (cleaved DNA) compared to control (non-treated cells). Statistical analysis was performed using one-way ANOVA, followed by Dunnett’s multiple comparisons test using GraphPad Prism software. Differences were considered significant when p < 0.05.

COX-1 = molecular target: T1, COX-1 (Homo sapiens, UniProt P23219); experiment: COX-1 activity: PGE2 from exogenous arachidonic acid in HEK-293 cells overexpressing COX-1; format: cell-based; conditions: for effect on COX-1 activity: 10 µM for compounds 1, 7, 9, 50 µM for others, 10 µM arachidonic acid; for IC50: HEK-293 overexpressing COX-1, compounds 30 min prior to 10 µM arachidonic acid
T1 construct: expressed in transfected cells
T1 sequence (P23219 24-599): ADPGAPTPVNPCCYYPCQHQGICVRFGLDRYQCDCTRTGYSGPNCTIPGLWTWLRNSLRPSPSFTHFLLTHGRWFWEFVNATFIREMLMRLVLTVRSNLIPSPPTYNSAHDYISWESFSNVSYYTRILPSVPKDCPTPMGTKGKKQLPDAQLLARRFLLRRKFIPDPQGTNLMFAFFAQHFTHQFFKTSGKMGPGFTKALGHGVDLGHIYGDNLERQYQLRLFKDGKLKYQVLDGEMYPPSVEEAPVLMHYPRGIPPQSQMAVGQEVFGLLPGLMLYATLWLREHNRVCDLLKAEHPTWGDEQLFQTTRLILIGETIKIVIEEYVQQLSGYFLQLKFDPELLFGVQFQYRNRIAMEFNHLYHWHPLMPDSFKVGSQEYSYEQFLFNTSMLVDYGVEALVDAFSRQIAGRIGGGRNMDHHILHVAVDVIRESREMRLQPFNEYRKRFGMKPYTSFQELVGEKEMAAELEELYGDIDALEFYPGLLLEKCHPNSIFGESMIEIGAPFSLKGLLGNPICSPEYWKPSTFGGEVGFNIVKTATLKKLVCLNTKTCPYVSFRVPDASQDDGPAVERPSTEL
Description: Figure 3 Effects of the fluorinated benzofuran and dihydrobenzofuran on COX-1 and COX-2 activities. (A) Illustration for COX-1 activity assay. HEK-293 cells stably overexpressing COX-1 are treated with the nine derivatives of benzofuran at concentrations of only 10 µM for compounds 1, 7, and 9, and 50 µM for the other compounds, 30 min prior to the addition of 10 µM arachidonic acid (AA). […] (B) COX-1 activity. […] Levels of PGE2 were very low in the absence of arachidonic acid (0.04 ± 0.01 ng/mL) and 104.3 ± 16.7 ng/mL for 10 µM AA. (C) Illustration for COX-2 activity determination. Macrophages are treated with 10 µM of aspirin (ASA) for 30 min to block basal COX activity, washed, and treated with 10 ng/mL LPS for 24 h to induce COX-2. Cells are then washed and incubated 30 min with 50 µM of the different compounds prior to the addition of 10 µM of AA. The produced PGE2 mainly reflects COX-2 activity. (D) COX-2 activity. Percentage of LPS-treated cells was calculated, and data are represented as mean ± SEM (n = 4); * p < 0.05 versus AA for COX-1 activity, and versus LPS + ASA + AA for COX-2 activity (one-way ANOVA followed by Dunnett’s test). […] Levels of PGE2 were very low in the absence of arachidonic acid (0.06 ± 0.01 ng/mL) and 71.7 ± 5.7 ng/mL for 10 µM AA.
COX-1 and COX-2 activities were performed as described previously in human embryonic kidney cell line (HEK-293) stably overexpressing COX-1 [19] and in macrophages, respectively. […] For both COX-1 and COX-2 assays, the benzofuran compounds were then added to the cells for 30 min prior to the incubation with 10 µM arachidonic acid for another 30 min. PGE2 was then measured using an enzyme immunoassay, as described previously.
IL-6, CCL2, nitrite (for NO), and PGE2 concentrations from 3–5 independent experiments were expressed as percentage of LPS alone and as mean ± SEM. COX activity was determined as percentage of PGE2 produced from exogenous arachidonic acid. Curve fitting and calculation of IC50 values were performed using GraphPad Prism (version 9.5.1 Software, La Jolla, CA, USA).

[1] = tested on: NF-κB or Iκ-Bα phosphorylation; experiment: NF-κB and IκBα phosphorylation in LPS-treated macrophages (Western blot); format: cell-based, C57BL/6J mice; conditions: compounds 30 min prior to 1 h LPS
Description: as §1
F i g u re S4: Phosphorylation of NF-κB and IκBα kinetics in LPS-treated macrophages. (A) Kinetics of the phosphorylation of NF-κB and IκBα in macrophages. Cells were treated with 10 ng/mL LPS for different time points and protein expression was assessed by western blot. We determine that 1 hour incubation with LPS is efficient for the phosphorylation of NF-κB and IκBα phosphorylation; (B) Macrophages were treated with the tested compounds for 30 minutes prior to 1 hour-treatment with LPS. β-actin was used as a loading control and densitometric analysis was done ImageJ Software (NIH, MA). Data are ex pressed as fold of LPS-treated macrophages and represented as mean ± S.E.M. of 3 different experiments, *p<0.05 versus LPS (One-w a y Anova followed by the Dunnett’s test). […]

effect on COX-1 activity (COX-1)	IC50 (COX-1) [µM]	SMILES	effect on LPS-induced COX-2 protein expression (COX-2 protein expression)	effect on NF-κB or Iκ-Bα phosphorylation induced by LPS [1]
without any effect	–	COC(=O)CC1(O)Oc2ccc(Br)cc2C1(F)F (centres unmarked) [Compound 8]	–	did not modify
–	–	O=C(O)/C=C1/Oc2ccc(Br)cc2C1(F)F [Compound 2]	significantly decreased	did not modify
significantly reduced	7.9	O=C(O)/C=C1\Oc2ccc(Br)cc2C1(F)F [Compound 3]	–	did not modify
–	–	COC(=O)/C=C1/Oc2ccc(Br)cc2C1(F)F [Compound 1]	loss of this inhibitory effect	did not modify
direct inhibitory effect	–	O=C(O)Cc1oc2ccc(-c3ccccc3)cc2c1F [Compound 5]	no effect	–

SMILES	effect on COX-1 activity (COX-1)	IC50 (COX-1) [µM]	effect on LPS-induced COX-2 protein expression (COX-2 protein expression)	effect on NF-κB or Iκ-Bα phosphorylation induced by LPS [1]
C=C(C)c1ccc2oc(CC(=O)O)c(F)c2c1 [Compound 6]	significantly reduced; also recorded: direct inhibitory effect	5	no effect	–
